Experimental data published in patent US6465457B1 (priority 1991, dated 2002).
Read-outs that look alike come from different tables or passages of the source.

How the values were obtained:
Type in all cases: in vivo
[1] = tested on: Phytophthora infestans (Tomatoes); details: one or two days before inoculation
[2] = tested on: Thanatephorus cucumeries (Rice); assay: Foliar fungal disease test on plants: Thanatephorus cucumeries (Rice); details: one or two days before inoculation
[3] = tested on: Plasmopara viticola (Vines); assay: Foliar fungal disease test on plants: Plasmopara viticola (Vines); details: one or two days before inoculation
[4] = tested on: Erysiphe graminis tritici (Wheat); assay: Foliar fungal disease test on plants: Erysiphe graminis tritici (Wheat); details: plants inoculated 24 hours before treatment
[5] = tested on: Pyricularia oryzae (Rice); details: one or two days before inoculation
[6] = tested on: Puccinia recondita (Wheat); assay: Foliar fungal disease test on plants: Puccinia recondita (Wheat)
Experimental: The compounds were tested against a variety of foliar fungal diseases of plants. The technique employed was as follows.
The plants were grown in John Innes Potting Compost (No 1 or 2) in 4 cm diameter minipots. The test compounds were formulated either by bead milling with aqueous DISPERSOL T or as a solution in acetone or acetone/ethanol which was diluted to the required concentration immediately before use. The formulations (100 ppm active ingredient) were sprayed on to the foliage or applied to the roots of the plants in the soil. The sprays were applied to maximum retention and the root drenches to a final concentration equivalent to approximately 40 ppm a.i. in dry soil. TWEEN 20 was added to give a final concentration of 0.05% when the sprays were applied to cereals.
[…] An exception was the test on Erysiphe graminis in which the plants were inoculated 24 hours before treatment. Foliar pathogens were applied by spray as zoosporangial suspensions onto the leaves of test plants. After inoculation, the plants were put into an appropriate environment to allow infection to proceed and then incubated until the disease was ready for assessment. The period between inoculation and assessment varied from four to fourteen days according to the disease and environment.
The disease level present (i.e. leaf area covered by actively sporulating disease) on each of the treated plants was recorded using the following assessment scale:
Each assessment was then expressed as a percentage of the level of disease present on the untreated control plants. This calculated value is referred to as a POCO (Percentage of Control) value. An example of a typical calculation is as follows:
Disease level on untreated control=90
Disese level on treated plant=30 [formula]
This calculated POCO value is then rounded to the nearest of the values in the 9-point assessment scale shown above. In this particular example, the POCO value would be rounded to 30. If the calculated POCO falls exactly mid-way between two of the points, it is rounded to the lower of the two values.

[7] = tested on: Venturia inaequalis (Apples); assay: Foliar fungal disease test on plants: Venturia inaequalis (Apples); details: one or two days before inoculation
[8] = tested on: Septoria nodorum (Wheat); assay: Foliar fungal disease test on plants: Septoria nodorum (Wheat); details: one or two days before inoculation
[9] = 100 ppm a.i. foliar spray or root drench (approx. 40 ppm in dry soil)
[10] = 100 ppm a.i. foliar spray or root drench, plants inoculated with Puccinia recondita 48 hours before treatment
[11] = 100 ppm a.i. foliar spray or root drench (approx. 40 ppm in dry soil), one or two days before inoculation
[12] = 10 ppm foliar spray only, plants inoculated with Puccinia recondita 48 hours before treatment

SMILES | POCO (Percentage of Control) disease level, Phytophthora infestans (Tomatoes) [1, 9] | POCO (Percentage of Control) disease level, Thanatephorus cucumeries (Rice) [2, 9] | POCO (Percentage of Control) disease level, Plasmopara viticola (Vines) [3, 9] | POCO (Percentage of Control) disease level, Erysiphe graminis tritici (Wheat) [4, 9] | POCO (Percentage of Control) disease level, Pyricularia oryzae (Rice) [5, 9] | POCO (Percentage of Control) disease level, Puccinia recondita (Wheat) [6, 10] | POCO (Percentage of Control) disease level, Venturia inaequalis (Apples) [7, 9] | POCO (Percentage of Control) disease level, Septoria nodorum (Wheat) [8, 9] | POCO (Percentage of Control) disease level, Puccinia recondita (Wheat) [6, 11] | POCO (Percentage of Control) disease level, Phytophthora infestans (Tomatoes) ([1]; 10 ppm foliar spray only) | POCO (Percentage of Control) disease level, Thanatephorus cucumeries (Rice) ([2]; 10 ppm foliar spray only) | POCO (Percentage of Control) disease level, Plasmopara viticola (Vines) ([3]; 10 ppm foliar spray only) | POCO (Percentage of Control) disease level, Erysiphe graminis tritici (Wheat) ([4]; 10 ppm foliar spray only) | POCO (Percentage of Control) disease level, Pyricularia oryzae (Rice) ([5]; 10 ppm foliar spray only) | POCO (Percentage of Control) disease level, Puccinia recondita (Wheat) [6, 12] | POCO (Percentage of Control) disease level, Venturia inaequalis (Apples) ([7]; 10 ppm foliar spray only) | POCO (Percentage of Control) disease level, Septoria nodorum (Wheat) ([8]; 10 ppm foliar spray only)
COC=C(C(=O)OC)c1ccccc1COC(=O)N1CCCCC1 [2 (133)] | 90 (90 and 94 = 60.1-100% disease present) | 90 (90 and 94 = 60.1-100% disease present) | 5 (5 = 3.1-5% disease present) | 60 (60 = 30.1-60% disease present) | 20 (20 and 24 = 10.1-20% disease present) | 90+ (90 and 94 = 60.1-100% disease present) | 5 (5 = 3.1-5% disease present) | 90 (90 and 94 = 60.1-100% disease present) | – | – | – | – | – | – | – | – | –
COC=C(C(=O)OC)c1ccccc1COC(=O)Nc1ccccc1F [3 (1)] | 30 (30 = 20.1-30% disease present) | 90 (90 and 94 = 60.1-100% disease present) | 0 (0 = 0% disease present) | 0 (0 = 0% disease present) | 90 (90 and 94 = 60.1-100% disease present) | – | 1 (1 = 0.1-1% disease present) | 0 (0 = 0% disease present) | 0 (0 = 0% disease present) | – | – | – | – | – | – | – | –
CO/C=C(/C(=O)OC)c1ccccc1COC(=O)NN1CCOCC1 [3 (133), (E)-methyl 3-methoxy-2-[2-(morpholinocarbamoyloxymethyl)phenyl]propenoate] | 90 (90 and 94 = 60.1-100% disease present) | 90 (90 and 94 = 60.1-100% disease present) | 90 (90 and 94 = 60.1-100% disease present) | 90 (90 and 94 = 60.1-100% disease present) | 90 (90 and 94 = 60.1-100% disease present) | 90+ (90 and 94 = 60.1-100% disease present) | 60 (60 = 30.1-60% disease present) | 90 (90 and 94 = 60.1-100% disease present) | – | – | – | – | – | – | – | – | –
COC=C(C(=O)OC)c1ccccc1COC(=O)NCc1ccccc1 [4 (1)] | 60 (60 = 30.1-60% disease present) | 90 (90 and 94 = 60.1-100% disease present) | 20 (20 and 24 = 10.1-20% disease present) | 90 (90 and 94 = 60.1-100% disease present) | 90 (90 and 94 = 60.1-100% disease present) | – | 60 (60 = 30.1-60% disease present) | 30 (30 = 20.1-30% disease present) | 30 (30 = 20.1-30% disease present) | – | – | – | – | – | – | – | –
COC=C(C(=O)OC)c1ccccc1COC(=O)N1CCSCC1 [4 (133)] | 90 (90 and 94 = 60.1-100% disease present) | 60 (60 = 30.1-60% disease present) | 0 (0 = 0% disease present) | 90 (90 and 94 = 60.1-100% disease present) | 90 (90 and 94 = 60.1-100% disease present) | 60+ (60 = 30.1-60% disease present) | 10 (10 = 5.1-10% disease present) | 90 (90 and 94 = 60.1-100% disease present) | – | – | – | – | – | – | – | – | –
CO/C=C(/C(=O)OC)c1ccccc1COC(=O)Nc1ccccc1 [5 (1), (E)-methyl 3-methoxy-2-[2-((phenyl)carbamoyloxymethyl)phenyl]propenoate] | 60 (60 = 30.1-60% disease present) | 60 (60 = 30.1-60% disease present) | 5 (5 = 3.1-5% disease present) | 60 (60 = 30.1-60% disease present) | 10 (10 = 5.1-10% disease present) | – | 30 (30 = 20.1-30% disease present) | 30 (30 = 20.1-30% disease present) | 60 (60 = 30.1-60% disease present) | – | – | – | – | – | – | – | –
COC=C(C(=O)OC)c1ccccc1COC(=S)Oc1ccccc1 [5 (12)] | – | – | – | – | – | – | – | – | – | 90 (90 and 94 = 60.1-100% disease present) | 60 (60 = 30.1-60% disease present) | 3 (3 = 1.1-3% disease present) | 60 (60 = 30.1-60% disease present) | 60 (60 = 30.1-60% disease present) | 90+ (90 and 94 = 60.1-100% disease present) | 0 (0 = 0% disease present) | 90 (90 and 94 = 60.1-100% disease present)
CNC(=O)C(=NOC)c1ccccc1COC(=O)Nc1ccccc1 [5 (65)] | – | – | – | – | – | – | – | – | – | 90 (90 and 94 = 60.1-100% disease present) | 90 (90 and 94 = 60.1-100% disease present) | 90 (90 and 94 = 60.1-100% disease present) | 30 (30 = 20.1-30% disease present) | 30 (30 = 20.1-30% disease present) | 90+ (90 and 94 = 60.1-100% disease present) | 90 (90 and 94 = 60.1-100% disease present) | 90 (90 and 94 = 60.1-100% disease present)
CNC(=O)C(=NOC)c1ccccc1COC(=O)N(C)c1ccccc1 [5 (66)] | 0 (0 = 0% disease present) | 0 (0 = 0% disease present) | 0 (0 = 0% disease present) | 0 (0 = 0% disease present) | 0 (0 = 0% disease present) | 10+ (10 = 5.1-10% disease present) | 0 (0 = 0% disease present) | 5 (5 = 3.1-5% disease present) | – | – | – | – | – | – | – | – | –
